Test results as given in patent US20220112479A1, “COMPOUNDS STABILIZING AMYLASES IN LIQUIDS” (BASF SE, priority 2018, published 2022).

Assays:
Assay type in all cases: biochemical
Amy1=Stainzyme = experiment: amylase storage stability in liquid formulation (pNP release from Ethyliden-blocked-pNPG7); design: key: % of activity in reference formulation at time 0; conditions: storage at 37° C.
Method: (§1) The storage stability of amylase was assessed at 37° C. Base test formulations were manufactured by making base formulations I to V by mixing the components according to Table 1. Amylases used: Amy1=Stainzyme, Amy2=Amplify, Amy3=Stainzyme Plus L (12L) The respective component (a) or comparative compound was added, if applicable, to the respective base formulation in amounts as indicated in Table 1. The amount of amylase as provided in Table 1 refers to active protein. Water was added to accomplish the balance to 100. […] Amylase activity at certain points in time as indicated in Table 2 was measured quantitatively by the release of the chromophore para-nitrophenol (pNP) from the substrate ([…]-blocked-pNPG7, Roche Applied Science 10880078103). The alpha-amylase degrades the substrate into smaller molecules and α-glucosidase (Roche Applied Science 11626329103), which is present in excess compared to the amylase, process these smaller products until pNP is released; the release of pNP, measured via an increase of absorption at 405 nm, is directly proportional to the amylase activity of the sample. Amylase standard: […] 120 L (Sigma 3403). […] The amylolytic activity values provided were calculated referring to the value determined in the reference formulation at the time 0. The nomenclature of formulations is as follows: the Roman number before the full stop characterizes the base formulation, the Arabian number the type of compound (A.# compound according to invention (component (a)); B.# comparative compound).

Amy2=Amplify = experiment: as above; design: key: % of activity in reference formulation at time 0; conditions: base formulation III., 1.5 wt % component (a), storage at 37° C.
Method: as §1

Savinase Ultra 16.0L = molecular target: T1, Savinase Ultra 16.0L (Lederbergia lenta, UniProt P29600); experiment: protease storage stability in liquid formulation (Suc-AAPF-pNA substrate); conditions: storage at 37° C.
T1 construct: purchased Sigma-Aldrich
T1 sequence (P29600 1-269): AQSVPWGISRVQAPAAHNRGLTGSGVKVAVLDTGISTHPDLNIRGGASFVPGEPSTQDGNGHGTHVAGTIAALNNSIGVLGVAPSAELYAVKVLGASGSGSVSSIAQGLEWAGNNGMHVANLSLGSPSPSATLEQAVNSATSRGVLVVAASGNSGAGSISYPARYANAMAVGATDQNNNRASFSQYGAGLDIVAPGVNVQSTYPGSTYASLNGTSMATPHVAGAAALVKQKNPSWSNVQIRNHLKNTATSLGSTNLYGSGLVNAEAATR
Method: Base test formulations were manufactured by making base formulations I to V by mixing the components according to Table 1.
Protease used: (S) Savinase Ultra 16.0L (CAS-No. 9014-01-1, EC-No. 232-752-2) was purchased from Sigma-Aldrich
The respective component (a) or comparative compound was added, if applicable, to the respective base formulation in amounts as indicated in Table 1.
The amount of protease as provided in Table 1 refers to active protein.
Water was added to accomplish the balance to 100.
Protease activity at certain points in time as indicated in Table 3 was be determined by employing Succinyl-Ala-Ala-Pro-Phe-p-nitroanilide (Suc-AAPF-pNA, short AAPF) as substrate. pNA is cleaved from the substrate molecule by proteolytic cleavage, resulting in release of yellow color of free pNA which was determined by measuring […]. Measurements were done at 20° C.
The proteolytic activity values provided in Table 3 were calculated referring to the value determined in the reference formulation at the time 0.
The nomenclature of formulations is as follows: the Roman number before the full stop characterizes the base formulation, the Arabian number the type of salt (A.#inventive salt (component (a)); B.# comparative compound). Zero (“0”): no salt, but diethylene glycol.

[1] = base formulation I., 1.5 wt % component (a), 3 d
[2] = base formulation I., 1.5 wt % component (a), 7 d
[3] = base formulation I., 1.5 wt % component (a), 14 d
[4] = base formulation I., 1.5 wt % component (a), 21 d
[5] = base formulation I., 1.5 wt % component (a), 28 d
[6] = base formulation I., 1.5 wt % component (a), 42 d
[7] = base formulation I., 1.5 wt % component (a), T0
[8] = base formulation III., 1.5 wt % component (a), 3 d
[9] = base formulation III., 1.5 wt % component (a), 7 d
[10] = base formulation III., 1.5 wt % component (a), 14 d
[11] = base formulation III., 1.5 wt % component (a), 21 d
[12] = base formulation III., 1.5 wt % component (a), 28 d
[13] = base formulation III., 1.5 wt % component (a), 42 d
[14] = base formulation III., 1.5 wt % component (a), T0
[15] = base formulation IV., 2.0 wt % component (a), 3 d
[16] = base formulation IV., 2.0 wt % component (a), 7 d
[17] = base formulation IV., 2.0 wt % component (a), 14 d
[18] = base formulation IV., 2.0 wt % component (a), 21 d
[19] = base formulation IV., 2.0 wt % component (a), 28 d
[20] = base formulation IV., 2.0 wt % component (a), 42 d
[21] = base formulation IV., 2.0 wt % component (a), T0

With Monoethylcitrate [A.6] the “amylase activity, referring to reference formulation at time 0” value (“amylase activity, referring” below) (Amy1=Stainzyme; [1]) was 95, the “amylase activity, referring” value (Amy1=Stainzyme; [2]) was 84 and the “amylase activity, referring” value (Amy1=Stainzyme; [3]) was 79. For the same molecule, the “amylase activity, referring” value (Amy1=Stainzyme; [4]) was 70, the “amylase activity, referring” value (Amy1=Stainzyme; [5]) was 61 and the “amylase activity, referring” value (Amy1=Stainzyme; [6]) was 48. For the same molecule, the “amylase activity, referring” value (Amy1=Stainzyme; [7]) was 98, the “amylase activity, referring” value (Amy2=Amplify; 3 d) was 96 and the “amylase activity, referring” value (Amy2=Amplify; 7 d) was 90. For the same molecule, the “amylase activity, referring” value (Amy2=Amplify; 14 d) was 83, the “amylase activity, referring” value (Amy2=Amplify; 21 d) was 74 and the “amylase activity, referring” value (Amy2=Amplify; 28 d) was 63. The “amylase activity, referring” value (Amy2=Amplify; 42 d) was 49, the “amylase activity, referring” value (Amy2=Amplify; T0) was 97 and the “protease activity, referring to reference formulation at time 0” value (“protease activity, referring” for short) (Savinase Ultra 16.0L; [1]) was 94. The “protease activity, referring” value (Savinase Ultra 16.0L; [2]) was 90, the “protease activity, referring” value (Savinase Ultra 16.0L; [3]) was 81 and the “protease activity, referring” value (Savinase Ultra 16.0L; [4]) was 73. The “protease activity, referring” value (Savinase Ultra 16.0L; [5]) was 67, the “protease activity, referring” value (Savinase Ultra 16.0L; [6]) was 56 and the “protease activity, referring” value (Savinase Ultra 16.0L; [7]) was 100. For the same molecule, the “protease activity, referring” value (Savinase Ultra 16.0L; [8]) was 94, the “protease activity, referring” value (Savinase Ultra 16.0L; [9]) was 90 and the “protease activity, referring” value (Savinase Ultra 16.0L; [10]) was 84. For the same molecule, the “protease activity, referring” value (Savinase Ultra 16.0L; [11]) was 78, the “protease activity, referring” value (Savinase Ultra 16.0L; [12]) was 70 and the “protease activity, referring” value (Savinase Ultra 16.0L; [13]) was 62. The “protease activity, referring” value (Savinase Ultra 16.0L; [14]) was 100.

For `CCCCOC(=O)CC(CC(=O)OCCCC)(OC(C)=O)C(=O)OCCCC` [A.4, Acetyltributylcitrate], the “protease activity, referring” value (Savinase Ultra 16.0L; [1]) was 100, the “protease activity, referring” value (Savinase Ultra 16.0L; [2]) was 94 and the “protease activity, referring” value (Savinase Ultra 16.0L; [3]) was 90. For the same molecule, the “protease activity, referring” value (Savinase Ultra 16.0L; [4]) was 84, the “protease activity, referring” value (Savinase Ultra 16.0L; [5]) was 82 and the “protease activity, referring” value (Savinase Ultra 16.0L; [6]) was 70. The “protease activity, referring” value (Savinase Ultra 16.0L; [7]) was 102, the “protease activity, referring” value (Savinase Ultra 16.0L; base formulation II., 1.5 wt % component (a), 3 d) was 100 and the “protease activity, referring” value (Savinase Ultra 16.0L; base formulation II., 1.5 wt % component (a), 7 d) was 95. For the same molecule, the “protease activity, referring” value (Savinase Ultra 16.0L; base formulation II., 1.5 wt % component (a), 14 d) was 90, the “protease activity, referring” value (Savinase Ultra 16.0L; base formulation II., 1.5 wt % component (a), 21 d) was 85 and the “protease activity, referring” value (Savinase Ultra 16.0L; base formulation II., 1.5 wt % component (a), 28 d) was 81. For the same molecule, the “protease activity, referring” value (Savinase Ultra 16.0L; base formulation II., 1.5 wt % component (a), 42 d) was 70, the “protease activity, referring” value (Savinase Ultra 16.0L; base formulation II., 1.5 wt % component (a), T0) was 102 and the “protease activity, referring” value (Savinase Ultra 16.0L; [8]) was 99. For the same molecule, the “protease activity, referring” value (Savinase Ultra 16.0L; [9]) was 95, the “protease activity, referring” value (Savinase Ultra 16.0L; [10]) was 91 and the “protease activity, referring” value (Savinase Ultra 16.0L; [11]) was 86. The “protease activity, referring” value (Savinase Ultra 16.0L; [12]) was 81, the “protease activity, referring” value (Savinase Ultra 16.0L; [13]) was 70 and the “protease activity, referring” value (Savinase Ultra 16.0L; [14]) was 101. For the same molecule, the “protease activity, referring” value (Savinase Ultra 16.0L; base formulation V., 2.0 wt % component (a), 3 d) was 94, the “protease activity, referring” value (Savinase Ultra 16.0L; base formulation V., 2.0 wt % component (a), 7 d) was 90 and the “protease activity, referring” value (Savinase Ultra 16.0L; base formulation V., 2.0 wt % component (a), 14 d) was 85. The “protease activity, referring” value (Savinase Ultra 16.0L; base formulation V., 2.0 wt % component (a), 21 d) was 80, the “protease activity, referring” value (Savinase Ultra 16.0L; base formulation V., 2.0 wt % component (a), 28 d) was 76 and the “protease activity, referring” value (Savinase Ultra 16.0L; base formulation V., 2.0 wt % component (a), 42 d) was 68. The “protease activity, referring” value (Savinase Ultra 16.0L; base formulation V., 2.0 wt % component (a), T0) was 98.

In the case of `CCCCOC(=O)CC(O)(CC(=O)OCCCC)C(=O)OCCCC` [A.3, Tributylcitrate], the “amylase activity, referring” value (Amy1=Stainzyme; [15]) is reported as 95, the “amylase activity, referring” value (Amy1=Stainzyme; [16]) is reported as 90 and the “amylase activity, referring” value (Amy1=Stainzyme; [17]) is reported as 84. For the same molecule, the “amylase activity, referring” value (Amy1=Stainzyme; [18]) was 77, the “amylase activity, referring” value (Amy1=Stainzyme; [19]) was 68 and the “amylase activity, referring” value (Amy1=Stainzyme; [20]) was 57. For the same molecule, the “amylase activity, referring” value (Amy1=Stainzyme; [21]) was 98, the “protease activity, referring” value (Savinase Ultra 16.0L; [15]) was 98 and the “protease activity, referring” value (Savinase Ultra 16.0L; [16]) was 90. For the same molecule, the “protease activity, referring” value (Savinase Ultra 16.0L; [17]) was 85, the “protease activity, referring” value (Savinase Ultra 16.0L; [18]) was 78 and the “protease activity, referring” value (Savinase Ultra 16.0L; [19]) was 70. For the same molecule, the “protease activity, referring” value (Savinase Ultra 16.0L; [20]) was 67 and the “protease activity, referring” value (Savinase Ultra 16.0L; [21]) was 99.
